Assay results taken from PubChem BioAssay AID2060500 (Molecular Pharmacology Branch, DTP, NCI, 2025).

Tested on: 596521-263-R-J1-PDC complex spheroids, viability % of control
Experiment: Anticancer human tumor 596521-263-R-J1-PDC patient-derived soft tissue sarcoma cell line growth inhibition [GQUAD]
Conditions: for IC50: curve of first compound; for viability, T/C: stronger effect = lower value; active means viability on the fitted dose curve at most 10% of control; inactive means the rest
Procedure, shortened: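 Tumor cells were grown as complex spheroids with HUVEC endothelial cells and mesenchymal stem cells as stroma. G-quadruplex stabilizers were combined with targeted agents over half-log dilutions from near the clinical Cmax, or from 10 microM.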
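Further: spheroids exposed to drugs for 7 days before viability reading.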
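Wherever viability, T/C is given: 100% = DMSO vehicle control viability.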

COc1cccc2c1C(=O)c1c(O)c3c(c(O)c1C2=O)CC(O)(C(=O)CO)CC3OC1CC(N)C(O)C(C)O1 (configuration not stated) + Cc1cnc(CNC(=O)c2c(=O)c3ccc(N4CCCN(C)CC4)nc3n3c2sc2ccccc23)cn1
inactive: viability, T/C (second compound 0.0316 µM, first compound 0.0316 µM) 98.3% | viability, T/C (second compound 0.0316 µM, first compound 0.1 µM) 71.2% | viability, T/C (second compound 0.0316 µM, first compound 0.316 µM) 66.6% | viability, T/C (second compound 0.0316 µM, first compound 1 µM) 52.3% | viability, T/C (second compound 0.0316 µM, first compound 3.16 µM) 26.5% | viability, T/C (second compound 0.1 µM, first compound 0.0316 µM) 87.2% | viability, T/C (second compound 0.1 µM, first compound 0.1 µM) 73.8% | viability, T/C (second compound 0.1 µM, first compound 0.316 µM) 57.1% | viability, T/C (second compound 0.1 µM, first compound 1 µM) 51.1% | viability, T/C (second compound 0.1 µM, first compound 3.16 µM) 31% | viability, T/C (second compound 0.316 µM, first compound 0.0316 µM) 78.7% | viability, T/C (second compound 0.316 µM, first compound 0.1 µM) 70.4% | viability, T/C (second compound 0.316 µM, first compound 0.316 µM) 55.5% | viability, T/C (second compound 0.316 µM, first compound 1 µM) 51.4% | viability, T/C (second compound 0.316 µM, first compound 3.16 µM) 29% | viability, T/C (second compound 1 µM, first compound 0.0316 µM) 69.6% | viability, T/C (second compound 1 µM, first compound 0.1 µM) 53% | viability, T/C (second compound 1 µM, first compound 0.316 µM) 50.7% | viability, T/C (second compound 1 µM, first compound 1 µM) 47.2% | viability, T/C (second compound 1 µM, first compound 3.16 µM) 30.7% | viability, T/C (second compound 3.16 µM, first compound 0.0316 µM) 50.7% | viability, T/C (second compound 3.16 µM, first compound 0.1 µM) 49% | viability, T/C (second compound 3.16 µM, first compound 0.316 µM) 52.7% | viability, T/C (second compound 3.16 µM, first compound 1 µM) 45.2% | viability, T/C (second compound 3.16 µM, first compound 3.16 µM) 23.8% | viability, T/C (second compound 10 µM, first compound 0.0316 µM) 46.8% | viability, T/C (second compound 10 µM, first compound 0.1 µM) 49.5% | viability, T/C (second compound 10 µM, first compound 0.316 µM) 46.4% | viability, T/C (second compound 10 µM, first compound 1 µM) 44.3% | viability, T/C (second compound 10 µM, first compound 3.16 µM) 11.4%
338 nM: IC50 (second compound 3.16 µM)
784 nM: IC50 (second compound 0.1 µM)
750 nM: IC50 (second compound 0.0316 µM)
511 nM: IC50 (second compound 1 µM)
< 31.6 nM: IC50 (second compound 10 µM)
795 nM: IC50 (second compound 0.316 µM)
active: viability, T/C (second compound 0.0316 µM, first compound 10 µM) 4.29% | viability, T/C (second compound 0.1 µM, first compound 10 µM) 4.25% | viability, T/C (second compound 0.316 µM, first compound 10 µM) 3.29% | viability, T/C (second compound 1 µM, first compound 10 µM) 2.51% | viability, T/C (second compound 3.16 µM, first compound 10 µM) 0.29% | viability, T/C (second compound 10 µM, first compound 10 µM) 0.27%
